Target: Human RSK2 (Homo sapiens (Human), UniProt P51812)
Experiment: Human RSK2 assay (Kinase Glo Plus, residual ATP);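 note: recombinant human RSK2 phosphorylating a substrate peptide, 90 min at 28 °C, leftover ATP read by luminescence, RLU scaled between no-kinase background and uninhibited kinase controls, 4-parameter fit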
Type: biochemical

Sequence of Human RSK2 (P51812 whole entry): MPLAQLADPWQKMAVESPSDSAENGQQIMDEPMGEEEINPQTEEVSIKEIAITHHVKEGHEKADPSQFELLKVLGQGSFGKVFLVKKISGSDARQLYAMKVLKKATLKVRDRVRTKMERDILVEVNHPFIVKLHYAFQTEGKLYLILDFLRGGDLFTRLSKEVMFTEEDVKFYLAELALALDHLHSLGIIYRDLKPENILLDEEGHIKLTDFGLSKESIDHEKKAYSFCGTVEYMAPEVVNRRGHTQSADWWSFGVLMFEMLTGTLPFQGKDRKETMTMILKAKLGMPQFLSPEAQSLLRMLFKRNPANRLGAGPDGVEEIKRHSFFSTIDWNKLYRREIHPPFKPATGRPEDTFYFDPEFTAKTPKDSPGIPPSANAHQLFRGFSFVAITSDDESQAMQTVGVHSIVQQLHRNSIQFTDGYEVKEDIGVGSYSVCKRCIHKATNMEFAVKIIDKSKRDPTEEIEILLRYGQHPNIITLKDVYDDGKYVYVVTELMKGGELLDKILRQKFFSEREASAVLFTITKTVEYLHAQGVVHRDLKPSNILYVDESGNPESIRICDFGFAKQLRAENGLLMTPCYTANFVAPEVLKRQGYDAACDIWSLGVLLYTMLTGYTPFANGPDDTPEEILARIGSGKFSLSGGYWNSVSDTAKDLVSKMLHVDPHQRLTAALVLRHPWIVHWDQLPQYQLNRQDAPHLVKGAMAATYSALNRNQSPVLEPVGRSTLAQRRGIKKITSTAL

In order of falling IC50:
1. N#Cc1ccccc1NC(=O)c1ccc2cc3n(c2c1)CCCNC3=O [Example 217, N-(2-cyanophenyl)-1-oxo-2,3,4,5-tetrahydro-1H-[1,4]diazepino[1,2-a]indole-8-carboxamide]  7000 nM
2. CC1(C)CNC(=O)c2cc3ccc(C(=O)Nc4cccnc4)cc3n2C1 [Example 9, 4,4-dimethyl-1-oxo-N-(pyridin-3-yl)-2,3,4,5-tetrahydro-1H-[1,4]diazepino[1,2-a]indole-8-carboxamide]  4600 nM
3. Cc1cc(NC(=O)c2ccc3cc4n(c3c2)[C@@H](C)[C@@H](C)NC4=O)no1 [Example 172, (3R,4S)-3,4-dimethyl-N-(5-methyl-1,2-oxazol-3-yl)-1-oxo-1,2,3,4-tetrahydropyrazino[1,2-a]indole-7-carboxamide]  1100 nM
4. Cn1c(-c2ccccc2)cnc1NC(=O)c1ccc2cc3n(c2c1)CCCNC3=O [Example 107, N-(1-methyl-5-phenyl-1H-imidazol-2-yl)-1-oxo-2,3,4,5-tetrahydro-1H-[1,4]diazepino[1,2-a]indole-8-carboxamide]  500 nM
5. O=C(Nc1cccnc1)c1ccc2cc3n(c2c1)CC1(CC1)CNC3=O [Example 123, 1′-oxo-N-(pyridin-3-yl)-2′,3′-dihydro-1′H-spiro[cyclopropane-1,4′-[1,4]diazepino[1,2-a]indole]-8′-carboxamide]  430 nM
6. COc1ccccc1NC(=O)c1ccc2cc3n(c2c1)CCCNC3=O [Example 147, N-(2-methoxyphenyl)-1-oxo-2,3,4,5-tetrahydro-1H-[1,4]diazepino[1,2-a]indole-8-carboxamide]  400 nM
7. O=C(Nc1nc2ccccc2o1)c1ccc2cc3n(c2c1)CCCNC3=O [Example 112, N-(1,3-benzoxazol-2-yl)-1-oxo-2,3,4,5-tetrahydro-1H-[1,4]diazepino[1,2-a]indole-8-carboxamide]  370 nM
8. O=C(Nc1ccccn1)c1ccc2cc3n(c2c1)CCCNC3=O [Example 154, 1-oxo-N-(pyridin-2-yl)-2,3,4,5-tetrahydro-1H-[1,4]diazepino[1,2-a]indole-8-carboxamide]  220 nM
9. O=C(Nc1ccc2scnc2c1)c1ccc2cc3n(c2c1)CCCNC3=O [Example 203, N-(1,3-benzothiazol-5-yl)-1-oxo-2,3,4,5-tetrahydro-1H-[1,4]diazepino[1,2-a]indole-8-carboxamide]  180 nM
10. Cc1cccc(-c2cc(NC(=O)c3ccc4cc5n(c4c3)CCCNC5=O)on2)c1 [Example 200, N-[3-(3-methylphenyl)-1,2-oxazol-5-yl]-1-oxo-2,3,4,5-tetrahydro-1H-[1,4]diazepino[1,2-a]indole-8-carboxamide]  160 nM
11. CN(C)CCn1cc(NC(=O)c2ccc3cc4n(c3c2)CCCNC4=O)cn1 [Example 119, N-{1-[2-(dimethylamino)ethyl]-1H-pyrazol-4-yl}-1-oxo-2,3,4,5-tetrahydro-1H-[1,4]diazepino[1,2-a]indole-8-carboxamide]  120 nM
12. CC(C)c1cc(NC(=O)c2ccc3cc4n(c3c2)CCCNC4=O)no1 [Example 213, 1-oxo-N-[5-(propan-2-yl)-1,2-oxazol-3-yl]-2,3,4,5-tetrahydro-1H-[1,4]diazepino[1,2-a]indole-8-carboxamide]  66 nM
13. CC(C)(C)n1cc(NC(=O)c2ccc3cc4n(c3c2)CCCNC4=O)cn1 [Example 191, N-(1-tert-butyl-1H-pyrazol-4-yl)-1-oxo-2,3,4,5-tetrahydro-1H-[1,4]diazepino[1,2-a]indole-8-carboxamide]  48 nM
14. O=C(Nc1cc(C2CCCCC2)no1)c1ccc2cc3n(c2c1)CCCNC3=O [Example 209, N-(3-cyclohexyl-1,2-oxazol-5-yl)-1-oxo-2,3,4,5-tetrahydro-1H-[1,4]diazepino[1,2-a]indole-8-carboxamide]  39 nM
15. Cc1cc(NC(=O)c2ccc3cc4n(c3c2)CCCNC4=O)no1 [Example 2, N-(5-methyl-1,2-oxazol-3-yl)-1-oxo-2,3,4,5-tetrahydro-1H-[1,4]diazepino[1,2-a]indole-8-carboxamide]  30 nM
16. O=C(Nc1ncc[nH]1)c1ccc2cc3n(c2c1)CCCNC3=O [Example 108, N-(1H-imidazol-2-yl)-1-oxo-2,3,4,5-tetrahydro-1H-[1,4]diazepino[1,2-a]indole-8-carboxamide]  25.5 nM
17. O=C(Nc1nc2ccccc2n1C1CCCC1)c1ccc2cc3n(c2c1)CCCNC3=O [Example 75, N-(1-cyclopentyl-1H-benzimidazol-2-yl)-1-oxo-2,3,4,5-tetrahydro-1H-[1,4]diazepino[1,2-a]indole-8-carboxamide]  25 nM
18. CC(C)n1c(NC(=O)c2ccc3cc4n(c3c2)[C@@H](C)CNC4=O)nc2ccccc21 [Example 69, (4S)-4-methyl-1-oxo-N-[1-(propan-2-yl)-1H-benzimidazol-2-yl]-1,2,3,4-tetrahydropyrazino[1,2-a]indole-7-carboxamide]  21 nM
19. CC(C)n1ncc2cc(NC(=O)c3ccc4cc5n(c4c3)C(C)CCNC5=O)cnc21 (centres unmarked) [Example 162, 5-methyl-1-oxo-N-[1-(propan-2-yl)-1H-pyrazolo[3,4-b]pyridin-5-yl]-2,3,4,5-tetrahydro-1H-[1,4]diazepino[1,2-a]indole-8-carboxamide]  19 nM
20. CC(C)(C)n1c(NC(=O)c2ccc3cc4n(c3c2)CCCNC4=O)nc2ccccc21 [Example 65, N-(1-tert-butyl-1H-benzimidazol-2-yl)-1-oxo-2,3,4,5-tetrahydro-1H-[1,4]diazepino[1,2-a]indole-8-carboxamide]  19 nM
21. CC(C)CCn1cc(NC(=O)c2ccc3cc4n(c3c2)CCCNC4=O)cn1 [Example 35, N-[1-(3-methylbutyl)-1H-pyrazol-4-yl]-1-oxo-2,3,4,5-tetrahydro-1H-[1,4]diazepino[1,2-a]indole-8-carboxamide]  11 nM
22. CCCNC(=O)c1nc(NC(=O)c2ccc3cc4n(c3c2)C(C)CNC4=O)sc1C(C)C (centres unmarked) [Example 235, 4-methyl-1-oxo-N-[5-(propan-2-yl)-4-(propylcarbamoyl)-1,3-thiazol-2-yl]-1,2,3,4-tetrahydropyrazino[1,2-a]indole-7-carboxamide]  10.9 nM
23. Cc1nc2ccc(NC(=O)c3ccc4cc5n(c4c3)CCCNC5=O)cc2s1 [Example 205, N-(2-methyl-1,3-benzothiazol-6-yl)-1-oxo-2,3,4,5-tetrahydro-1H-[1,4]diazepino[1,2-a]indole-8-carboxamide]  10 nM
24. CN(C)CCCn1c(NC(=O)c2ccc3cc4n(c3c2)CC2(CC2)CNC4=O)nc2ccccc21 [Example 124, N-{1-[3-(dimethylamino)propyl]-1H-benzimidazol-2-yl}-1′-oxo-2′,3′-dihydro-1′H-spiro[cyclopropane-1,4′-[1,4]diazepino[1,2-a]indole]-8′-carboxamide]  9.25 nM
25. Cn1cc(NC(=O)c2ccc3cc4n(c3c2)CCCNC4=O)nc1C(=O)NC1CCCC1 [Example 232, N-[2-(cyclopentylcarbamoyl)-1-methyl-1H-imidazol-4-yl]-1-oxo-2,3,4,5-tetrahydro-1H-[1,4]diazepino[1,2-a]indole-8-carboxamide]  9 nM
26. C[C@@H]1NC(=O)c2cc3ccc(C(=O)Nc4nc5ccccc5n4CCCN(C)C)cc3n2[C@H]1C (relative stereo) [Example 91, N-{1-[3-(dimethylamino)propyl]-1H-benzimidazol-2-yl}-trans-3,4-dimethyl-1-oxo-1,2,3,4-tetrahydropyrazino[1,2-a]indole-7-carboxamide]  8.5 nM
27. CC1(C)CNC(=O)c2cc3ccc(C(=O)Nc4ccccc4C(N)=O)cc3n21 [Example 221, N-(2-carbamoylphenyl)-4,4-dimethyl-1-oxo-1,2,3,4-tetrahydropyrazino[1,2-a]indole-7-carboxamide]  8.2 nM
28. CC(C)n1ncc2cc(NC(=O)c3ccc4cc5n(c4c3)[C@@H](C)[C@@H](C)NC5=O)cnc21 (relative stereo) [Example 18, cis-3,4-dimethyl-1-oxo-N-[1-(propan-2-yl)-1H-pyrazolo[3,4-b]pyridin-5-yl]-1,2,3,4-tetrahydropyrazino[1,2-a]indole-7-carboxamide]  8.1 nM
29. CC1CNC(=O)c2cc3ccc(C(=O)Nc4cc5ccccc5[nH]4)cc3n21 (centres unmarked) [Example 177, N-(1H-indol-2-yl)-4-methyl-1-oxo-1,2,3,4-tetrahydropyrazino[1,2-a]indole-7-carboxamide]  8 nM
30. Cn1cc(NC(=O)c2ccc3cc4n(c3c2)C(C)(C)CNC4=O)nc1C(=O)NC(C)(C)C [Example 231, N-[2-(tert-butylcarbamoyl)-1-methyl-1H-imidazol-4-yl]-4,4-dimethyl-1-oxo-1,2,3,4-tetrahydropyrazino[1,2-a]indole-7-carboxamide]  6 nM
31. CCn1c(NC(=O)c2ccc3cc4n(c3c2)CCCNC4=O)nc2cc(C)ccc21 [Example 40, N-(1-ethyl-5-methyl-1H-benzimidazol-2-yl)-1-oxo-2,3,4,5-tetrahydro-1H-[1,4]diazepino[1,2-a]indole-8-carboxamide]  4.8 nM
32. Cn1cc(NC(=O)c2ccc3cc4n(c3c2)C(C)(C)CNC4=O)nc1C(=O)NC1CCCC1 [Example 233, N-[2-(cyclopentylcarbamoyl)-1-methyl-1H-imidazol-4-yl]-4,4-dimethyl-1-oxo-1,2,3,4-tetrahydropyrazino[1,2-a]indole-7-carboxamide]  3.7 nM
33. C[C@H]1CNC(=O)c2cc3ccc(C(=O)Nc4nc5ccccc5n4CCCN(C)C)cc3n2[C@H]1C (relative stereo) [Example 92, N-{1-[3-(dimethylamino)propyl]-1H-benzimidazol-2-yl}-cis-4,5-dimethyl-1-oxo-2,3,4,5-tetrahydro-1H-[1,4]diazepino[1,2-a]indole-8-carboxamide]  2 nM
34. CCn1c(NC(=O)c2ccc3cc4n(c3c2)[C@@H](C)[C@@H](C)NC4=O)nc2ccccc21 (relative stereo) [Example 79, N-(1-ethyl-1H-benzimidazol-2-yl)-cis-3,4-dimethyl-1-oxo-1,2,3,4-tetrahydropyrazino[1,2-a]indole-7-carboxamide]  0.64 nM
35. CC1CNC(=O)c2cc3ccc(C(=O)Nc4nc5ccccc5[nH]4)cc3n21 (centres unmarked) [Example 57, N-(1H-benzimidazol-2-yl)-4-methyl-1-oxo-1,2,3,4-tetrahydropyrazino[1,2-a]indole-7-carboxamide]  0.59 nM
